Laboratory results as given in patent publication US5326776A, “Angiotensin II receptor antagonists” (Abbott Laboratories, priority 1993, dated 1994).

Experiments:
angiotensin II receptor = molecular target: T1, angiotensin II receptor (Oryctolagus cuniculus, UniProt P34976); assay: Antagonism of contraction of rabbit aorta (angiotensin II functional assay, isolated rabbit aorta, pA2); set-up: species or system rabbit (female New Zealand White); conditions: angiotensin II as agonist, 30 minutes incubation with antagonist, Schild analysis, negative logarithm of [A]2
T1 construct: Main abdominal aortas were removed and placed in Krebs-Henseleit buffer at room temperature; from tissue; host or cells: main abdominal aorta rings (3 mm) of female New Zealand White rabbits
T1 sequence (P34976 1-359): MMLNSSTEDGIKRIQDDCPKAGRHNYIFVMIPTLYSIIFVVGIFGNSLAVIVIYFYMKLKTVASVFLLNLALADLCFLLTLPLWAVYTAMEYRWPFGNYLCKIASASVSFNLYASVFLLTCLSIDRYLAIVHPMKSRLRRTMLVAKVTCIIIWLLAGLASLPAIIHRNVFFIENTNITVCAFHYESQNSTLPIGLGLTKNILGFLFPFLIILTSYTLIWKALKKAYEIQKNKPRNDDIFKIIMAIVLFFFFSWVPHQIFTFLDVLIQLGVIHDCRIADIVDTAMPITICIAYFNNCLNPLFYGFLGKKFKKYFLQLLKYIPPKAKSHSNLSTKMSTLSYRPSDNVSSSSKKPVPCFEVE
From the text: ANGIOTENSIN II FUNCTIONAL ASSAY: Antagonism of Contraction of Rabbit Aorta
The protocol reported by A. T Chiu and P. Timmermans (P. C. Wong, et al. Hypertension, 13, 489-497 (1989)) was followed with a few modifications. Female New Zealand White rabbits weighing 2-5 kg were sedated with carbon dioxide and then sacrificed. Main abdominal aortas were removed and placed in Krebs-Henseleit buffer at room temperature. […]
______________________________________
Buffer Component mM Concentration
potassium dihydrogen phosphate
sodium bicarbonate 20.00
EDTA* disodium calcium salt
*EDTA = ethylenediamine tetraacetic acid
The buffer contained no cocaine, propanolol or steroid.
The pH of the buffer was 7.40 at 37° C. when saturated with 5%
carbon dioxide/95% oxygen.
The tissues were cleaned of extraneous connective tissue, cut into 3 mm rings, and suspended within a 10 mL tissue bath. All dilutions of peptide preparations were made with 0.3% aqueous BSA. The tissues were primed with 55 mM potassium chloride. Tissues were pre-loaded with 1 g of tension. Tension was recorded on a model 7 Grass polygraph using FT03 transducers. At the end of the equilibrium period, a control cumulative concentration-contractile response curve for angiotensin II (A II: 1×10^-10 -10^-8 M) was obtained. The tissue was washed several times until the baseline was reached. Forty five minutes later, test compound (antagonist) was added and the tissue was incubated for 30 minutes. The concentration-response curve for A II was then repeated in the presence of the test compound. One dose of antagonist was tested per tissue only. For single dose shift experiments a dose of 1 mM of test compound was used, for a full pA2 experiment multiple doses were used depending upon the potency of the antagonist.
All responses to the control agonist were calculated as a percentage of the maximum response. These points in duplicate were plotted and analyzed according to standard Schild analysis (H. O. Schild, British J Pharmacology and Chemotherapy, 2, 189-206 (1947). The pA2 values calculated for the compounds of the invention are shown in Table 6. The pA2 value is the negative logarithm of the [A]2 value. [A]2 is the concentration of antagonist which necessitates doubling the agonist concentration in order to achieve the agonist effect which was measured in the absence of antagonist.
The pA2 value, therefore, is a measure of the effectiveness of the compound as an antagonist.

angiotensin II = conditions: background statement; cited from earlier work
angiotensin receptor = conditions: in vivo; cited from earlier work
[1] = peptide; cited from earlier work

| SMILES | Kb (angiotensin II receptor) [nM] | also measured |
| --- | --- | --- |
| CCCCN(Cc1ccc(-c2ccccc2-c2nnn[nH]2)cc1)c1nc(SC)n(C)c1C(=O)OCC [Example 1, Ethyl 4-{N-butyl-N-[(2'-[1H-tetrazol-5-yl]biphenyl-4-yl)methyl]amino}-1-methyl-2-(methylthio)imidazole-5-carboxylate] | 105 |  |
| CCCCN(Cc1ccc(-c2ccccc2-c2nn[nH]n2)cc1)c1scnc1C(=O)O [Example 3, 5-{N-Butyl-N-[(2'-[1H-tetrazol-5-yl]biphenyl-4-yl)methyl]amino}thiazole-4-carboxylic acid] | 6.31 |  |
| CCCCN(Cc1ccc(-c2ccccc2-c2nn[nH]n2)cc1)c1ncn(CC)c1C(=O)OC(C)(C)C [Example 5, tert-Butyl 4-{N-butyl-N-[(2'-[1H-tetrazol-5-yl]biphenyl-4-yl)methyl]amino}-1-(N-ethyl)imidazole-5-carboxylate] | 87.1 |  |
| CCCCN(Cc1ccc(-c2ccccc2-c2nn[nH]n2)cc1)c1cn(CC)cn1 [Example 6, 4-{N-Butyl-N-[(2'-[1H-tetrazol-5-yl]biphenyl-4-yl)methyl]amino}-1-(N-ethyl)imidazole] | 7.59 |  |
| CCCCN(Cc1ccc(-c2ccccc2-c2nnn[nH]2)cc1)c1snnc1C(=O)OCC [Example 9, Ethyl 5-{N-butyl-N-[(2'-[1H-tetrazol-5-yl]biphenyl-4-yl)methyl]amino}-1,2,3-thiadiazole-4-carboxylate] | 16.6 |  |
| CCCCN(Cc1ccc(-c2ccccc2-c2nn[nH]n2)cc1)c1snnc1C(=O)O [Example 10, 5-[N-Butyl-N-[[2'-(1H-tetrazol-5-yl)biphenyl-4-yl]methyl]amino]-1,2,3-thiadiazole-4-carboxylic acid] | 4.37 |  |
| CCCCN(Cc1ccc(-c2ccccc2-c2nnn[nH]2)cc1)c1nnc(C(=O)OCC)s1 [Example 11, Ethyl 2-{N-Butyl-N-[(2'-[1H-tetrazol-5-yl]biphenyl-4-yl)methyl]amino}-1,3,4-thiadiazole-5-carboxylate] | 2.95 |  |
| CCCCN(Cc1ccc(-c2ccccc2-c2nnn[nH]2)cc1)c1nncs1 [Example 12, 2-{N-Butyl-N-[(2'-[1H-tetrazol-5-yl]biphenyl-4-yl)methyl]amino}-1,3,4-thiadiazole] | 20 |  |
| CNCC(=O)N[C@@H](CCCN=C(N)N)C(=O)N[C@H](C(=O)N[C@@H](Cc1ccc(O)cc1)C(=O)N[C@H](C(=O)N[C@@H](Cc1cnc[nH]1)C(=O)N1CCC[C@H]1C(=O)N[C@@H](C)C(=O)O)C(C)C)C(C)C [saralasin, [Sar^1,Ala^8] angiotensin II] |  | antagonist of the actions of angiotensin II (angiotensin II): potent antagonist of the actions of angiotensin II; blood pressure after intravenous administration (angiotensin receptor): initial increase in blood pressure after intravenous administration; oral bioavailability [1]: very poor oral bioavailability |

Second part, led by results:

| Kb (angiotensin II receptor) [nM] | SMILES | also measured |
| --- | --- | --- |
| 11.5 | CCCN(Cc1ccc(-c2ccccc2-c2nn[nH]n2)cc1)c1nn(C)cc1C(=O)O [Example 14, 1-Methyl-3-{N-propyl-N-[(2'-[1H-tetrazol-5-yl]biphenyl-4-yl)methyl]amino}pyrazole-4-carboxylic acid] |  |
| 1.66 | CCCCN(Cc1ccc(-c2ccccc2-c2nn[nH]n2)cc1)c1ncc(C(=O)O)s1 [Example 27, 2-{N-Butyl-N-[(2'-[1H-tetrazol-5-yl]biphenyl-4-yl)methyl]amino}thiazole-5-carboxylic acid] |  |
| 13.5 | CCCN(Cc1ccc(-c2ccccc2-c2nn[nH]n2)cc1)c1ncc(C(=O)O)s1 [Example 28, 2-{N-Propyl-N-[(2'-[1H-tetrazol-5-yl]biphenyl-4-yl)methyl]amino}thiazole-5-carboxylic acid] |  |
| 2.34 | CCCN(Cc1ccc(-c2ccccc2-c2nn[nH]n2)cc1)c1nc(C)c(C(=O)O)s1 [Example 29, 4-Methyl-2-{N-propyl-N-[(2'-[1H-tetrazol-5-yl]biphenyl-4-yl)methyl]amino}thiazole-5-carboxylic acid] |  |
| 27.5 | CCCN(Cc1ccc(-c2ccccc2-c2nn[nH]n2)cc1)c1nc(C(F)(F)F)c(C(=O)O)s1 [Example 30, 2-{N-Propyl-N-[(2'-[1H-tetrazol-5-yl]biphenyl-4-yl)methyl]amino}thiazole-4-trifluoromethyl-5-carboxylic acid] |  |
| 37.2 | CCCc1nc(N(CCC)Cc2ccc(-c3ccccc3-c3nn[nH]n3)cc2)sc1C(=O)O [Example 31, 2-{N-Propyl-N-[(2'-[1H-tetrazol-5-yl]biphenyl-4-yl)methyl]amino}thiazole-4-propyl-5-carboxylic acid] |  |
